# Where a name gives a salt, the structure may show the parent alone. Read-outs that look alike come from different tables or passages of the source. Square brackets hold non-standard residues; d marks the D form. Peptide text beside a SMILES is read from it.
# Columns and labels:
# [1] = tested on: HMLER‐shEcad; assay: cells; type: cell-based, human
# Description: (§1) […], and MCF-10A cells were maintained in MEGM with supplements and growth factors bovine pituitary extract, hydrocortisone, human epidermal growth factor, insulin, and gentamicin/amphotericin-B.
# [2] = tested on: HMLER; assay: cells; type: cell-based, human
# Description: as §1
# [3] = tested on: MCF‐10A; assay: cells; type: cell-based, human
# Description: as §1
# [4] = tested on: MCF‐10A mammospheres; assay: Mammosphere viability assay (TOX8); type: cell-based, human; settings: for D‐enantiomer average IC90 against MCF‐10A mammospheres: one average for d‐DHK and d‐EEK together
# [5] = tested on: HEK293T; assay: cells; type: cell-based, human
# [6] = tested on: HMLER‐shEcad tumorspheres; assay: cells; type: cell-based, human; settings: for IC50 / IC90: Homo sapiens; for IC50: 120 h, read-out: IC50 against HMLER‐shEcad tumorspheres; for IC90: read-out: IC90 against HMLER‐shEcad tumorspheres
# [7] = tested on: U2OS; type: cell-based, human; settings: 2D culture, MTT, 72 h incubation; library peptides n = 2; D-enantiomers and small molecules replicated six times; read-out: IC50 (µM) U2OS
# [8] = tested on: human red blood cells; assay: Haemolysis (human red blood cells); type: cell-based; settings: PBS, 37 °C, 1 h, one value for DHK, d‐DHK and d‐EEK together
# Procedure: Fresh human red blood cells were obtained from Interstate Blood Bank, Inc., and thoroughly washed in PBS until the supernatant was clear. The peptide was serially diluted in PBS starting at a concentration of 200 µM. […] As a positive lysis control, 1% triton was used. […] After centrifugation, 10 µL of supernatant was transferred to 90 µL of ddH2O in a fresh 96‐well plate.
# [9] = tested on: HMLER‐shEcad; assay: Resistance formation after prolonged drug exposure, 2D culture; type: cell-based, human; settings: Homo sapiens
# Procedure: Cancer stem cells can survive treatment, gain resistance, and reseed tumors, presenting a major challenge for chemotherapy.^[ [2] ^] […] Drugs were added with medium every 3–4 days, maintaining smooth cell growth, and 125 000 cells were split into new T25 flasks with a total volume of 5 mL once per week.
# [10] = 2D culture, MTT, 72 h incubation, library peptides average of two independent experiments (n = 2), D-enantiomers and small molecules replicated six times, read-out: IC50 (µM) HMLER-shEcad
# [11] = 2D culture, MTT, 72 h incubation, library peptides average of two independent experiments (n = 2), D-enantiomers and small molecules replicated six times, read-out: IC50 (µM) HMLER
# [12] = non-cancerous cells, 2D culture, MTT, 72 h incubation, library peptides n = 2, D-enantiomers and small molecules replicated six times, read-out: IC50 (µM) MCF-10A
# [13] = non-cancerous cells, 2D culture, MTT, 72 h incubation, library peptides n = 2, D-enantiomers and small molecules replicated six times, read-out: IC50 (µM) HEK293T
smiles,measurement,setting,value
"CC[C@@H](C(=O)[C@@H](C)[C@@H](O)[C@H](C)[C@@H]1O[C@@H]([C@@H](CC)C(=O)O)CC[C@@H]1C)[C@H]1O[C@]2(C=C[C@@H](O)[C@]3(CC[C@@](C)([C@H]4CC[C@](O)(CC)[C@H](C)O4)O3)O2)[C@H](C)C[C@@H]1C [Salinomycin, salinomycin, reference compound]",IC50,"[1]; Homo sapiens, 72 h, read-out: IC50 (µM) HMLER-shEcad, 2D culture, MTT, 72 h incubation, library peptides average of two independent experiments (n = 2), D-enantiomers and small molecules replicated six times",0.92 ± 0.28 µM
same,IC50,"[1]; Homo sapiens, read-out: IC50 of salinomycin co‐administered with DHK, HMLER‐shEcad, with […] DHK",0.03 µM
same,IC50,"[1]; read-out: IC50 (µM) HMLER-shEcad, 2D culture, MTT, 72 h incubation, library peptides average of two independent experiments (n = 2), D-enantiomers and small molecules replicated six times",0.9 ± 0.3 µM
same,IC50,"[2]; Homo sapiens, 72 h, read-out: IC50 (µM) HMLER, 2D culture, MTT, 72 h incubation, library peptides average of two independent experiments (n = 2), D-enantiomers and small molecules replicated six times",0.37 ± 0.08 µM
same,IC50,"[2]; Homo sapiens, read-out: IC50 of salinomycin co‐administered with DHK, HMLER, with […] DHK",0.05 µM
same,increase in anticancer efficiency,[2]; addition of 5 µM DHK,100 fold
same,IC50,"[2]; read-out: IC50 (µM) HMLER, 2D culture, MTT, 72 h incubation, library peptides average of two independent experiments (n = 2), D-enantiomers and small molecules replicated six times",0.4 ± 0.1 µM
same,cancer cell viability,"[2]; with 5 µM DHK, at the lowest dose of salinomycin",< 1%
same,factor by which the dosage of salinomycin required to kill cells is reduced,"[2]; with […] DHK, both HMLER and HMLER‐shEcad",8–27
same,IC50,"[3]; Homo sapiens, MCF-10A, 72 h, read-out: IC50 (µM) MCF-10A, non-cancerous cells, 2D culture, MTT, 72 h incubation, library peptides n = 2, D-enantiomers and small molecules replicated six times",9.76 ± 2.28 µM
same,IC50,"[3]; Homo sapiens, MCF-10A, read-out: IC50 of salinomycin co‐administered with DHK, MCF‐10A, with […] DHK",1.7 µM
same,IC50,"[3]; read-out: IC50 (µM) MCF-10A, non-cancerous cells, 2D culture, MTT, 72 h incubation, library peptides n = 2, D-enantiomers and small molecules replicated six times",9.7 ± 2.3 µM
same,IC90 against MCF‐10A mammospheres,[4],34000 ± 20000 nM
same,IC50,"[5]; Homo sapiens, HEK-293T, 72 h, read-out: IC50 (µM) HEK293T, non-cancerous cells, 2D culture, MTT, 72 h incubation, library peptides n = 2, D-enantiomers and small molecules replicated six times",0.41 ± 0.1 µM
same,IC50,"[5]; Homo sapiens, HEK-293T, read-out: IC50 of salinomycin co‐administered with DHK, HEK293T, with […] DHK",0.1 µM
same,IC50,"[5]; read-out: IC50 (µM) HEK293T, non-cancerous cells, 2D culture, MTT, 72 h incubation, library peptides n = 2, D-enantiomers and small molecules replicated six times",0.4 ± 0.1 µM
same,IC50,[6],22000 ± 5000 nM
same,IC90,[6],44000 ± 17000 nM
CC(C)C[C@@H](NC(=O)CN)C(=O)N[C@H](CC(C)C)C(=O)N[C@H](CC(=O)O)C(=O)N[C@H](CC(C)C)C(=O)N[C@H](CC(C)C)C(=O)N[C@H](Cc1c[nH]cn1)C(=O)N[C@H](CC(C)C)C(=O)N[C@H](CC(C)C)C(=O)N[C@H](CC(C)C)C(=O)N[C@H](CCCCN)C(=O)N[C@H](C)C(=O)N[C@H](C)C(=O)NCC(=O)N[C@H](Cc1c[nH]c2ccccc12)C(N)=O [d-DHK] (H-G[dL][dL][dD][dL][dL][dH][dL][dL][dL][dK][dA][dA]G[dW]-NH2),IC50,[7],1.24 ± 0.03 µM
same,IC50,[1]; [10],0.23 ± 0.04 µM
same,IC50,"[1]; one value printed for each pair of peptides, cell line not given, read-out: IC50 (anticancer activity)",0.3 ± 0.1 µM
same,IC50,[2]; [11],0.32 ± 0.07 µM
same,IC50,[3]; [12],0.55 ± 0.06 µM
same,HC50,[8],14 ± 5 µM
same,D‐enantiomer average IC90 against MCF‐10A mammospheres,[4],8000 ± 5000 nM
same,IC50,[5]; [13],1.55 ± 0.37 µM
CC(C)C[C@@H](NC(=O)CN)C(=O)N[C@H](CC(C)C)C(=O)N[C@H](CCC(=O)O)C(=O)N[C@H](CC(C)C)C(=O)N[C@H](CC(C)C)C(=O)N[C@H](CCC(=O)O)C(=O)N[C@H](CC(C)C)C(=O)N[C@H](CC(C)C)C(=O)N[C@H](CC(C)C)C(=O)N[C@H](CCCCN)C(=O)N[C@H](C)C(=O)N[C@H](C)C(=O)NCC(=O)N[C@H](Cc1c[nH]c2ccccc12)C(N)=O [d-EEK] (H-G[dL][dL][dE][dL][dL][dE][dL][dL][dL][dK][dA][dA]G[dW]-NH2),IC50,[7],4.78 ± 0.02 µM
same,IC50,[1]; [10],0.29 ± 0.01 µM
same,IC50,"[1]; 2D culture, read-out: IC50, HMLER-shEcad cell viability, compound alone",0.3 ± 0.1 µM
same,IC50,"[1]; read-out: IC50, HMLER-shEcad cell viability, together with 5 µM caspase inhibitor z-VAD-FMK, 2D culture, co-incubation with 5 µM z-VAD-FMK",0.3 ± 0.1 µM
same,IC50,[2]; [11],0.29 ± 0.01 µM
same,IC50,[3]; [12],1.07 ± 0.1 µM
same,HC50,[8],14 ± 5 µM
same,D‐enantiomer average IC90 against MCF‐10A mammospheres,[4],8000 ± 5000 nM
same,IC50,[5]; [13],2.82 ± 0.07 µM
"COc1cccc2c1C(=O)c1c(O)c3c(c(O)c1C2=O)C[C@@](O)(C(=O)CO)C[C@@H]3O[C@H]1C[C@H](N)[C@H](O)[C@H](C)O1 [Doxorubicin, Doxorubicin hydrochloride, reference compound]",IC50,"[9]; 240 h, 2D HMLER‐shEcad after 10 days co‐incubation with 30 nM doxorubicin, read-out: IC50 of doxorubicin after prolonged doxorubicin exposure",189 ± 68 nM
same,IC50,"[9]; 2D HMLER‐shEcad, vehicle, read-out: IC50 of doxorubicin, cells before/without doxorubicin exposure",24 ± 2 nM
same,IC90 in 2D assay,"[1]; 2D HMLER‐shEcad (Figure 3d,f), cells remained viable in the high micromolar range",could not be attained
same,IC50,"[1]; Homo sapiens, read-out: IC50, HMLER-shEcad cell viability, 2D culture, co-incubation with 5 µM z-VAD-FMK",0.0477 ± 0.0026 µM
same,IC50,"[1]; Homo sapiens, read-out: IC50, HMLER-shEcad cell viability, 2D culture, co-incubation with 20 µM necrostatin-1",0.0631 ± 0.0042 µM
same,IC50,"[1]; Homo sapiens, 2D culture, read-out: IC50, HMLER-shEcad cell viability, compound alone",0.0031 ± 0.0004 µM
same,therapeutic window (fold IC50) in 2D assays,[3]; 2D assays,> 100 fold
same,selectivity for cancerous cells over non‐tumorigenic MCF‐10A,"[3]; 2D culture, ratio of IC50",> 160 fold
same,IC90 against MCF‐10A mammospheres,[4],167000 ± 7000 nM
same,therapeutic window (fold IC50) in the 3D assay,[4]; 3D spheroid assay,≈ 3 fold
same,tumorsphere cell viability,"[6]; HMLER‐shEcad tumorspheres, at 133 µM",> 15%
same,IC50,"[6]; 3D multicellular spheroids, 5 days, TOX8 fluorescence read-out",43000 ± 6000 nM
same,IC90,"[6]; 3D multicellular spheroids, reducing tumorsphere cell viability by 90%",138000 ± 11000 nM

# Reference: paper PMC9069370, “Integrated Design of a Membrane‐Lytic Peptide‐Based Intravenous Nanotherapeutic Suppresses Triple‐Negative Breast Cancer” (Advanced Science, 2022)
